According to the supplement of paper PMC10307832:

How the values were obtained:
Assay in all cases: relative viability (nuclei count vs DMSO), 5 days (fraction); higher = more cells survive
[1] = test system: BEN
Method in brief: (§1)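 Lung cancer cell lines in 1536-well plates got either a single drug or a fixed anchor-drug dose together with five library-drug doses (not always all listed) in √10 steps, by pin tool, on the day after seeding. Nuclei were counted after 5 days, and relative viability is the treated-to-vehicle ratio of nuclei counts. Values are medians of duplicate plates.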

[2] = test system: EKVX
Method in brief: as §1

[3] = test system: HARA
Method in brief: as §1

[4] = test system: HCC-366
Method in brief: as §1

[5] = test system: HCC-827
Method in brief: as §1

[6] = test system: LOU-NH91
Method in brief: as §1

[7] = test system: NCI-H1355
Method in brief: as §1

[8] = test system: NCI-H1395
Method in brief: as §1

[9] = test system: NCI-H1437
Method in brief: as §1

[10] = test system: NCI-H1734
Method in brief: as §1

[11] = test system: NCI-H1792
Method in brief: as §1

[12] = test system: NCI-H1993
Method in brief: as §1

[13] = test system: NCI-H2009
Method in brief: as §1

[14] = test system: NCI-H2087
Method in brief: as §1

[15] = test system: NCI-H2170
Method in brief: as §1

[16] = test system: NCI-H2342
Method in brief: as §1

[17] = test system: NCI-H2405
Method in brief: as §1

[18] = test system: NCI-H522
Method in brief: as §1

[19] = test system: NCI-H647
Method in brief: as §1

[20] = test system: NCI-H661
Method in brief: as §1

[21] = test system: SK-LU-1
Method in brief: as §1

[22] = test system: SK-MES-1
Method in brief: as §1

Structure (SMILES): Nc1ccn([C@@H]2O[C@H](CO)[C@@H](O)[C@@H]2O)c(=O)n1 [Cytarabine] + CC(=O)c1c(C)c2cnc(Nc3ccc(N4CCNCC4)cn3)nc2n(C2CCCC2)c1=O [Palbociclib] (partner 0.5 µM)
- relative viability ([1]; first compound 0.005 µM): 0.481
- relative viability ([1]; first compound 0.01581 µM): 0.431
- relative viability ([1]; first compound 0.05 µM): 0.458
- relative viability ([1]; first compound 0.1581 µM): 0.377
- relative viability ([1]; first compound 0.5 µM): 0.286
- relative viability ([2]; first compound 0.005 µM): 0.366
- relative viability ([2]; first compound 0.01581 µM): 0.403
- relative viability ([2]; first compound 0.05 µM): 0.296
- relative viability ([2]; first compound 0.5 µM): 0.207
- relative viability ([3]; first compound 0.005 µM): 0.291
- relative viability ([3]; first compound 0.01581 µM): 0.212
- relative viability ([3]; first compound 0.05 µM): 0.221
- relative viability ([3]; first compound 0.1581 µM): 0.158
- relative viability ([3]; first compound 0.5 µM): 0.163
- relative viability ([4]; first compound 0.005 µM): 0.302
- relative viability ([4]; first compound 0.01581 µM): 0.287
- relative viability ([4]; first compound 0.05 µM): 0.245
- relative viability ([4]; first compound 0.1581 µM): 0.0953
- relative viability ([4]; first compound 0.5 µM): 0.0777
- relative viability ([5]; first compound 0.005 µM): 0.347
- relative viability ([5]; first compound 0.01581 µM): 0.317
- relative viability ([5]; first compound 0.05 µM): 0.19
- relative viability ([5]; first compound 0.1581 µM): 0.173
- relative viability ([5]; first compound 0.5 µM): 0.14
- relative viability ([6]; first compound 0.005 µM): 0.478
- relative viability ([6]; first compound 0.01581 µM): 0.54
- relative viability ([6]; first compound 0.05 µM): 0.562
- relative viability ([6]; first compound 0.1581 µM): 0.432
- relative viability ([6]; first compound 0.5 µM): 0.412
- relative viability ([7]; first compound 0.005 µM): 0.595
- relative viability ([7]; first compound 0.01581 µM): 0.325
- relative viability ([7]; first compound 0.05 µM): 0.396
- relative viability ([7]; first compound 0.1581 µM): 0.28
- relative viability ([7]; first compound 0.5 µM): 0.232
- relative viability ([8]; first compound 0.005 µM): 0.599
- relative viability ([8]; first compound 0.01581 µM): 0.594
- relative viability ([8]; first compound 0.05 µM): 0.492
- relative viability ([8]; first compound 0.1581 µM): 0.406
- relative viability ([8]; first compound 0.5 µM): 0.345
- relative viability ([9]; first compound 0.005 µM): 0.284
- relative viability ([9]; first compound 0.01581 µM): 0.28
- relative viability ([9]; first compound 0.05 µM): 0.237
- relative viability ([9]; first compound 0.1581 µM): 0.192
- relative viability ([9]; first compound 0.5 µM): 0.196
- relative viability ([10]; first compound 0.005 µM): 0.305
- relative viability ([10]; first compound 0.01581 µM): 0.214
- relative viability ([10]; first compound 0.05 µM): 0.237
- relative viability ([10]; first compound 0.1581 µM): 0.153
- relative viability ([10]; first compound 0.5 µM): 0.155
- relative viability ([11]; first compound 0.005 µM): 0.853
- relative viability ([11]; first compound 0.01581 µM): 0.655
- relative viability ([11]; first compound 0.05 µM): 0.618
- relative viability ([11]; first compound 0.1581 µM): 0.508
- relative viability ([11]; first compound 0.5 µM): 0.468
- relative viability ([12]; first compound 0.005 µM): 0.714
- relative viability ([12]; first compound 0.01581 µM): 0.489
- relative viability ([12]; first compound 0.05 µM): 0.518
- relative viability ([12]; first compound 0.1581 µM): 0.507
- relative viability ([12]; first compound 0.5 µM): 0.323
- relative viability ([13]; first compound 0.005 µM): 0.211
- relative viability ([13]; first compound 0.01581 µM): 0.192
- relative viability ([13]; first compound 0.05 µM): 0.187
- relative viability ([13]; first compound 0.1581 µM): 0.154
- relative viability ([13]; first compound 0.5 µM): 0.125
- relative viability ([14]; first compound 0.005 µM): 0.23
- relative viability ([14]; first compound 0.01581 µM): 0.215
- relative viability ([14]; first compound 0.05 µM): 0.231
- relative viability ([14]; first compound 0.1581 µM): 0.167
- relative viability ([14]; first compound 0.5 µM): 0.205
- relative viability ([15]; first compound 0.005 µM): 0.369
- relative viability ([15]; first compound 0.01581 µM): 0.266
- relative viability ([15]; first compound 0.05 µM): 0.26
- relative viability ([15]; first compound 0.1581 µM): 0.177
- relative viability ([15]; first compound 0.5 µM): 0.186
- relative viability ([16]; first compound 0.005 µM): 0.525
- relative viability ([16]; first compound 0.01581 µM): 0.557
- relative viability ([16]; first compound 0.05 µM): 0.502
- relative viability ([16]; first compound 0.1581 µM): 0.467
- relative viability ([16]; first compound 0.5 µM): 0.435
- relative viability ([17]; first compound 0.005 µM): 0.518
- relative viability ([17]; first compound 0.01581 µM): 0.449
- relative viability ([17]; first compound 0.05 µM): 0.367
- relative viability ([17]; first compound 0.1581 µM): 0.275
- relative viability ([17]; first compound 0.5 µM): 0.234
- relative viability ([18]; first compound 0.005 µM): 1.09
- relative viability ([18]; first compound 0.01581 µM): 0.872
- relative viability ([18]; first compound 0.05 µM): 0.824
- relative viability ([18]; first compound 0.1581 µM): 0.767
- relative viability ([18]; first compound 0.5 µM): 0.595
- relative viability ([19]; first compound 0.005 µM): 0.316
- relative viability ([19]; first compound 0.01581 µM): 0.206
- relative viability ([19]; first compound 0.05 µM): 0.207
- relative viability ([19]; first compound 0.1581 µM): 0.0933
- relative viability ([19]; first compound 0.5 µM): 0.0634
- relative viability ([20]; first compound 0.005 µM): 0.429
- relative viability ([20]; first compound 0.01581 µM): 0.393
- relative viability ([20]; first compound 0.05 µM): 0.377
- relative viability ([20]; first compound 0.1581 µM): 0.353
- relative viability ([20]; first compound 0.5 µM): 0.251
- relative viability ([21]; first compound 0.005 µM): 0.371
- relative viability ([21]; first compound 0.01581 µM): 0.419
- relative viability ([21]; first compound 0.05 µM): 0.271
- relative viability ([21]; first compound 0.1581 µM): 0.307
- relative viability ([21]; first compound 0.5 µM): 0.284
- relative viability ([22]; first compound 0.005 µM): 0.297
- relative viability ([22]; first compound 0.01581 µM): 0.265
- relative viability ([22]; first compound 0.05 µM): 0.253
- relative viability ([22]; first compound 0.1581 µM): 0.246
- relative viability ([22]; first compound 0.5 µM): 0.223
